Results from ChEMBL document CHEMBL1201862, “PubChem BioAssay data set” (2004).
Activity calls are given as the source filed them.

Experiments:
[1] = molecular target: T1, Tyrosyl-DNA phosphodiesterase 2 (Homo sapiens, UniProt O95551); assay: potency against TDP2 phosphodiesterase activity – biochemical, epi absorbance, IC50, dose response (AID 743297)
T1 sequence (O95551 whole entry): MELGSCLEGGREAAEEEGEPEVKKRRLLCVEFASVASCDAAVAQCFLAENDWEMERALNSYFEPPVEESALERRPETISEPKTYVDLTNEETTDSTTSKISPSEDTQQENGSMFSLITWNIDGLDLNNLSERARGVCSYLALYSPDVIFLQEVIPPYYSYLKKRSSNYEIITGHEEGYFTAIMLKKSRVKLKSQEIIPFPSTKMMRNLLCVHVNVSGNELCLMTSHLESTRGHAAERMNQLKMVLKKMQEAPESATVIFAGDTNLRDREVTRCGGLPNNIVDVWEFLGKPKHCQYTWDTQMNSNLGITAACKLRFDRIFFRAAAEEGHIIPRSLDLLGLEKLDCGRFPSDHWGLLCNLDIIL

Protein RecA = molecular target: T2, Protein RecA (Mycobacterium tuberculosis, UniProt P9WHJ3); assay: Fluorescence Cell-Free Homogeneous Dose Retest to Identify Inhibitors of RecA-Intein Splicing Activity. [Related pubchem assays (depositor defined):AID2097, AID2223, AID489010, AID492950]; assay type: functional
T2 sequence (P9WHJ3 whole entry): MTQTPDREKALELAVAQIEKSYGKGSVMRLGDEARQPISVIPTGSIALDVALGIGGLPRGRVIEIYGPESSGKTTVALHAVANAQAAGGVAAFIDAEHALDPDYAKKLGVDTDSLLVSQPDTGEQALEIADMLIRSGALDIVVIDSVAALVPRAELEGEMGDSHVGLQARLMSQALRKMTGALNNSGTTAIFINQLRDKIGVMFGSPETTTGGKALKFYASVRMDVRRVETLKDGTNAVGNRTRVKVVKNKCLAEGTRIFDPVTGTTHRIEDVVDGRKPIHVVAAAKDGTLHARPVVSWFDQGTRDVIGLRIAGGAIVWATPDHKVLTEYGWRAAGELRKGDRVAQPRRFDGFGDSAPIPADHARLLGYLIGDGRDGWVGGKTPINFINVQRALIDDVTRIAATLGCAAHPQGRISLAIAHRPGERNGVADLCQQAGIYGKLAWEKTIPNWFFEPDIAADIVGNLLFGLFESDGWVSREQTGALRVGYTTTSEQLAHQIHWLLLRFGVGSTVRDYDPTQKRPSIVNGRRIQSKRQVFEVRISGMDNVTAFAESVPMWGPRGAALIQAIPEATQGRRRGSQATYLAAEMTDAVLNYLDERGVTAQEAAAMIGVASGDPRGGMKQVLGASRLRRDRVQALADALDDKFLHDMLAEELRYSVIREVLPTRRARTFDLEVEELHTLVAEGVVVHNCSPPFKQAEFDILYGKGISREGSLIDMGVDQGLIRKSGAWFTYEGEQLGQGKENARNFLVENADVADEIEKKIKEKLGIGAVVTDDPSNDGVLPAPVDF

[2] = molecular target: Serine/threonine-protein phosphatase (Homo sapiens, UniProt Q9BPW0); assay: inhibition of protein phosphatase 5 activity – biochemical, fluorescence, dose response (AID 2395)
[3] = molecular target: T3, Replicative DNA helicase DnaB (Mycobacterium tuberculosis, UniProt P9WMR3); assay: DnaB intein splicing inhibitors, dose response, biochemical, cell-free fluorescence (AID 449749); assay type: functional
T3 sequence (P9WMR3 whole entry): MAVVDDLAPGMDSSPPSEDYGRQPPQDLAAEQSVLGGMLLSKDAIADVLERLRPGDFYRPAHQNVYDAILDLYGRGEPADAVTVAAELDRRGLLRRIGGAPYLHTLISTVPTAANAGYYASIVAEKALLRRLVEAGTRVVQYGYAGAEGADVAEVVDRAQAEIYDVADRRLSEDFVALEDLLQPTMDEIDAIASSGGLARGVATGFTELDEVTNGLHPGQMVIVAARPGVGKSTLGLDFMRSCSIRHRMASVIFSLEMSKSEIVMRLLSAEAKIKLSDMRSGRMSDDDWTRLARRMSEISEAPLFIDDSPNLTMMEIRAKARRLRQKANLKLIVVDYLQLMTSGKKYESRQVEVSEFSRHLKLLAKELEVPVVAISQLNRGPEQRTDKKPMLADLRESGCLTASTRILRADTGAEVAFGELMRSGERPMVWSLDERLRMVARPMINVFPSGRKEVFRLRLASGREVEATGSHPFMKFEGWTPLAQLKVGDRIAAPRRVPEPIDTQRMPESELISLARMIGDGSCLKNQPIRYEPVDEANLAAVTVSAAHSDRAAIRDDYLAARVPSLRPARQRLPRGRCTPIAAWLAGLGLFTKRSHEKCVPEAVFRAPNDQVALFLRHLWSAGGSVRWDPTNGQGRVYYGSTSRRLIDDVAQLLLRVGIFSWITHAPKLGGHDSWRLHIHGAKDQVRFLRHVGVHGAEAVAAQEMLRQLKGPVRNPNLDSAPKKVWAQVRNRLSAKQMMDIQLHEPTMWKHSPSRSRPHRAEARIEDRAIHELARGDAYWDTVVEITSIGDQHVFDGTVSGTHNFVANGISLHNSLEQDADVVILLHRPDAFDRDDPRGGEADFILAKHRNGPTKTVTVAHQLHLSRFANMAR

[4] = molecular target: T4, Apoptotic protease-activating factor 1 (Homo sapiens, UniProt O14727); assay type: functional
T4 sequence (O14727 whole entry): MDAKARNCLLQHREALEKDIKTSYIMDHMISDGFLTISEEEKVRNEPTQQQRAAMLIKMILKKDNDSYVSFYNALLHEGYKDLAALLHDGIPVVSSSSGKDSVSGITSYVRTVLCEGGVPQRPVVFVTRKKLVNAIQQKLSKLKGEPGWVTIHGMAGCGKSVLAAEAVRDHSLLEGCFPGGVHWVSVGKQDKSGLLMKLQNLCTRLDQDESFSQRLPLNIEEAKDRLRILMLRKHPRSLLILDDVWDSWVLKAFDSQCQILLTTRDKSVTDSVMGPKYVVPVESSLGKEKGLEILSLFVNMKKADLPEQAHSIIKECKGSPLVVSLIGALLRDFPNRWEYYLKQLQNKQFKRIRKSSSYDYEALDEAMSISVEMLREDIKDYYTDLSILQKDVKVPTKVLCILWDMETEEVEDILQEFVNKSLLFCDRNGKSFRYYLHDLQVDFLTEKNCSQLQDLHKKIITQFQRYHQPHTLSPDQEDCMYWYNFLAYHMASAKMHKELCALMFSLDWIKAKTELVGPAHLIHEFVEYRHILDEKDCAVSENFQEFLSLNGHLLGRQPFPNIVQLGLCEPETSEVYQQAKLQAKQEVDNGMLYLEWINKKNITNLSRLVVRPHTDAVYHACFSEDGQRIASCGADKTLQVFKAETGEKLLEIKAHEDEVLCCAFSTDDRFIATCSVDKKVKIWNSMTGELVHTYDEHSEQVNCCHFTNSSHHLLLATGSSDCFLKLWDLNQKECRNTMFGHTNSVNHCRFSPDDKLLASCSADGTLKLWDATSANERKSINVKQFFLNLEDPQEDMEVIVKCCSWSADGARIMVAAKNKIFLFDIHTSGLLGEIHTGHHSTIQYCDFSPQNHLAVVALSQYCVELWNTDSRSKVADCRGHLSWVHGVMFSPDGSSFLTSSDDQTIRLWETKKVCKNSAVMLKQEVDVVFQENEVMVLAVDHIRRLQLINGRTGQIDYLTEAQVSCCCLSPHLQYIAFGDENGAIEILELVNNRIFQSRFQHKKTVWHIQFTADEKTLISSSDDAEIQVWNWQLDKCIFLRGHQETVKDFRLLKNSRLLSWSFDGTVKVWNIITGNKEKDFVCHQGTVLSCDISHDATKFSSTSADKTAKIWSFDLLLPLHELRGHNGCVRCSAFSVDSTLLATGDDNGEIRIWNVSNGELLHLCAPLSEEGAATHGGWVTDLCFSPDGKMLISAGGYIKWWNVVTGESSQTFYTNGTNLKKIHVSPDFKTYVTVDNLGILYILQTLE

[5] = microbe, parasite or virus in culture; assay type: functional; conditions: Mycobacterium tuberculosis
[6] = molecular target: Serine/threonine-protein phosphatase PP1-alpha catalytic subunit (Homo sapiens, UniProt P62136); assay: inhibition of protein phosphatase 1 activity – biochemical, fluorescence, dose response (AID 2394)
Bcl-2-related protein A1 [7] = molecular target: T5, Bcl-2-related protein A1 (Mus musculus, UniProt Q07440); assay: small-molecule antagonists of Bfl-1/BH3 interaction – biochemical, TR-FRET, mouse Bfl-1, confirmation (AID 621);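 further: TR-FRET binding of GST-Bfl-1 to FITC-labelled Bid peptide via terbium antibody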
T5 sequence (Q07440 whole entry): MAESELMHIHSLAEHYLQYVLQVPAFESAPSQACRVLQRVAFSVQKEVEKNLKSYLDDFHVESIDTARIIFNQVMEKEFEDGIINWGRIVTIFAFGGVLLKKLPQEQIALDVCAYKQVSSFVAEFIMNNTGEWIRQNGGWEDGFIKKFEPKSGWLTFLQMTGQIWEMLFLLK

Beta-lactamase [8] = molecular target: Beta-lactamase (Salmonella choleraesuis (strain SC-B67), UniProt Q5J463)
[9] = molecular target: T6, Voltage-gated N-type calcium channel alpha-1B subunit/Amyloid beta A4 precursor protein-binding family A member 1 (Homo sapiens, UniProt Q00975+Q02410); assay type: protein assay
[10] = molecular target: T6, Voltage-gated N-type calcium channel alpha-1B subunit/Amyloid beta A4 precursor protein-binding family A member 1; assay type: protein assay; remark: listed apart in the source
[11] = molecular target: Dual specificity protein phosphatase 6 (Rattus norvegicus, UniProt Q64346); assay: inhibition of rat DUSP6 enzyme activity – biochemical, in vitro, primary screen (AID 425)
Bcl-2-related protein A1 [12] = molecular target: T5, Bcl-2-related protein A1; assay: displacement of Bid BH3 peptide from Bfl-1 – biochemical, fluorescence polarization, FITC-Bid, mouse, primary screen (AID 432)
Beta-lactamase [13] = molecular target: Beta-lactamase (Pseudomonas aeruginosa, UniProt Q79MP6);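 further: biochemical dose-response test of metallo-beta-lactamase enzyme inhibition, read out by epi-absorbance; purified recombinant IMP-1 metallo-beta-lactamase with nitrocefin as substrate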
[14] = molecular target: Mitogen-activated protein kinase 10 (Homo sapiens, UniProt P53779); assay: Dose response biochemical screening assay for inhibitors of c-Jun N-Terminal Kinase 3 (JNK3). [Related pubchem assays: 746 ]
Protein Wnt-3a = Protein Wnt-3a (Mus musculus, UniProt P27467); assay: antagonism of Wnt3a pathway luciferase reporter – Wnt-LIGHT cells, luminescence, selectivity assay for Gli-SUFU antagonist project, dose response (AID 651570); assay type: functional; conditions: read-out: IC50_Mean;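 further: Wnt-LIGHT reporter cells stimulated with conditioned medium from Wnt3a-producing cells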
[15] = NIH-3T3 fibroblast cytotoxicity, dose response, cytotoxicity control, cell-based, fluorescence, Alamar Blue, secondary assay (AID 2327); assay type: functional;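 further: NIH-3T3 mouse fibroblasts cultured with fluconazole at 8 µg/mL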
[16] = fluconazole-exposed Candida albicans growth modulators – fluorescence, retest, confirmation (AID 2467); assay type: functional, cell-based
[17] = molecular target: ATP-dependent molecular chaperone HSP82 (Candida albicans (strain WO-1) (Yeast), UniProt C4YTQ8); assay: steroid-induced GRE reporter decrease in yeast – S. cerevisiae, luminescence, Hsp90 inhibitor project, dose response (AID 2400); assay type: functional, cell-based;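 further: beta-galactosidase luminescence from glucocorticoid response element reporter as proxy for Hsp90 function; inhibitor potency where signal loss means Hsp90 inhibition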
Galanin receptor type 2 = Galanin receptor type 2 (Homo sapiens, UniProt O43603); assay: Dose Response cell-based high-throughput screening assay to identify antagonists of galanin receptor 2 (GALR2). [Related pubchem assays: 828, 866 ]; assay type: functional
INS1 = assay: INS-1E survival protection against cytokine death – cell-based, luminescence, retest, dose response (AID 449756); assay type: functional; conditions: Rattus norvegicus;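 further: cell death triggered by IL-1 beta plus TNF-alpha plus IFN-gamma mixture; protective hits raise ATP signal compared with cytokine alone wells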
[18] = molecular target: T7, Serine/threonine-protein phosphatase (Candida dubliniensis (strain CD36 / CBS 7987 / NCPF 3949 / NRRLY-17841) (Yeast), UniProt B9W6M3); assay: blockers of CaCl2-induced CDRE-lacZ signaling – S. cerevisiae, luminescence, secondary, dose response (AID 2388); assay type: functional, cell-based;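 further: yeast reporter cells carrying a calcineurin-responsive lacZ construct stimulated with calcium chloride; luminescent beta-galactosidase reporter signal in whole cells rather than isolated phosphatase activity; potency for inhibition where a drop in reporter signal means calcineurin blockade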
T7 sequence (B9W6M3 whole entry): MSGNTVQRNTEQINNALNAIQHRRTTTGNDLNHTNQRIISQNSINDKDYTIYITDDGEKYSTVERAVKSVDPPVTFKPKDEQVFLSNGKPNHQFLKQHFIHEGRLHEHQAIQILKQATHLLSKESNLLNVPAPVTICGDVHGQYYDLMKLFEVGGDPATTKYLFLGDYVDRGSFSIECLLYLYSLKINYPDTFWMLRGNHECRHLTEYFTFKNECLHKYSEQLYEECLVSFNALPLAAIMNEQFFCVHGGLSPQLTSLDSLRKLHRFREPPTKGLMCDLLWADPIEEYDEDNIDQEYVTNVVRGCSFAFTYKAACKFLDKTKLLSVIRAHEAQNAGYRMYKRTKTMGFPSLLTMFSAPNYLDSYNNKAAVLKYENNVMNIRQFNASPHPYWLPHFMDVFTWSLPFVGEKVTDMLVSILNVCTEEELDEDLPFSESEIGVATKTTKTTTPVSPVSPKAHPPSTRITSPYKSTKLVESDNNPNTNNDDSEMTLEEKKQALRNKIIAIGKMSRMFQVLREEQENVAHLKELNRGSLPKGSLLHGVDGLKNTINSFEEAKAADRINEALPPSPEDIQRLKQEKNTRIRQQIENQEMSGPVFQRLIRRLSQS

T6 sequence (Q00975 whole entry): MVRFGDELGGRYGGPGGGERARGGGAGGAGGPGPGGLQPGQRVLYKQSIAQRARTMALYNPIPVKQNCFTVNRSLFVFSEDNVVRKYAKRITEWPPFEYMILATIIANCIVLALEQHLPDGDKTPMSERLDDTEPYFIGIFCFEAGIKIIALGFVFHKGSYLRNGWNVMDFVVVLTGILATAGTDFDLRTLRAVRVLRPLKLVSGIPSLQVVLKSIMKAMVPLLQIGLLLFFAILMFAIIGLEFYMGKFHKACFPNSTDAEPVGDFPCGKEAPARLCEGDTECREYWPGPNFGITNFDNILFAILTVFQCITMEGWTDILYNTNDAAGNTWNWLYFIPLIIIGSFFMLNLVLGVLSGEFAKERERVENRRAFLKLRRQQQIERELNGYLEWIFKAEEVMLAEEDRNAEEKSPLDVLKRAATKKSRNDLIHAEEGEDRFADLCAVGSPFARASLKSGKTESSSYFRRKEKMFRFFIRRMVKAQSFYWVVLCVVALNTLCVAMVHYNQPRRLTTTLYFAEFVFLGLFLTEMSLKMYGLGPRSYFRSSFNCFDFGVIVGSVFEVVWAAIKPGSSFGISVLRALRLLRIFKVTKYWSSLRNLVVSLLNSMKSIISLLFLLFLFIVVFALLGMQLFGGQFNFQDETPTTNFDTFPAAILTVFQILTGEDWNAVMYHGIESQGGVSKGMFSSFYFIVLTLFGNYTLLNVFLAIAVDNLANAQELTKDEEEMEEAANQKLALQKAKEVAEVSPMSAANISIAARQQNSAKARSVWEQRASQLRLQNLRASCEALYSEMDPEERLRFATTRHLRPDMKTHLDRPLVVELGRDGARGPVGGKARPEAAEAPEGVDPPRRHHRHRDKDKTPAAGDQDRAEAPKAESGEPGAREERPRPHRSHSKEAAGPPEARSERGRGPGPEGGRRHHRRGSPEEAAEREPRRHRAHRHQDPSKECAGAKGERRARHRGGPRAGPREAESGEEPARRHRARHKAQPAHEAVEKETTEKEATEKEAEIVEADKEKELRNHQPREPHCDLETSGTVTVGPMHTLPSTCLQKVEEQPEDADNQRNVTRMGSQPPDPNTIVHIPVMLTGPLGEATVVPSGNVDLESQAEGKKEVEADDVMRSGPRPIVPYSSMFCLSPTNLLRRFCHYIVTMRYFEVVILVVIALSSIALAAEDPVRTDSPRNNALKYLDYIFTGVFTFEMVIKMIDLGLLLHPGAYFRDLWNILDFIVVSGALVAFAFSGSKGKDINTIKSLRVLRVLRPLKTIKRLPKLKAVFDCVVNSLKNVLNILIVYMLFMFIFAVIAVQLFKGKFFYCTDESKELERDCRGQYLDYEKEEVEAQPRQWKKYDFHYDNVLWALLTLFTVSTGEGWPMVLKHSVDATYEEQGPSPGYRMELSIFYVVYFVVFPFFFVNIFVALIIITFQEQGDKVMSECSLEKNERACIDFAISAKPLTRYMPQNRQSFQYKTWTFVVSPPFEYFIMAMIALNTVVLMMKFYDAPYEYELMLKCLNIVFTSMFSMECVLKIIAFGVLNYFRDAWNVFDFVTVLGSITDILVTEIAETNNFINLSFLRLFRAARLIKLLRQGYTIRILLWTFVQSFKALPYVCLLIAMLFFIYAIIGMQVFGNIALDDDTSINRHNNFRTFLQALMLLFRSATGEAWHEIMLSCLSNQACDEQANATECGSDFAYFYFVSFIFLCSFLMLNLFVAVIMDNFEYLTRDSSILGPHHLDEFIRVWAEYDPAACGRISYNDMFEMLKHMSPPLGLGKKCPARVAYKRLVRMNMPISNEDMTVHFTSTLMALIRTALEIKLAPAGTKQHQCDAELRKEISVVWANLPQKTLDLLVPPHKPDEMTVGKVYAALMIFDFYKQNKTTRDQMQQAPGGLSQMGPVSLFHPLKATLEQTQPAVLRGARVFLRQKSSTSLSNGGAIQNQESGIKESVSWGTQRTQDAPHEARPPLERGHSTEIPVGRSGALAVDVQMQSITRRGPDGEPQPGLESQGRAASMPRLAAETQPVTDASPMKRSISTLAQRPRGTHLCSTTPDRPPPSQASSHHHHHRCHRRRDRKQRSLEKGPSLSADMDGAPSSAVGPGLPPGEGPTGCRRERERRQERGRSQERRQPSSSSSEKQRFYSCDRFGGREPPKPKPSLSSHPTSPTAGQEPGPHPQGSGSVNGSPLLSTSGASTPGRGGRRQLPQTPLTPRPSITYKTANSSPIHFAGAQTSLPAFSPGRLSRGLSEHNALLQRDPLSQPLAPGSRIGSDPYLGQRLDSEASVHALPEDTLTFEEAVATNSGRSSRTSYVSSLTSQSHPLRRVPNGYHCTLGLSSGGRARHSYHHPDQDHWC
T6 sequence (Q02410 whole entry): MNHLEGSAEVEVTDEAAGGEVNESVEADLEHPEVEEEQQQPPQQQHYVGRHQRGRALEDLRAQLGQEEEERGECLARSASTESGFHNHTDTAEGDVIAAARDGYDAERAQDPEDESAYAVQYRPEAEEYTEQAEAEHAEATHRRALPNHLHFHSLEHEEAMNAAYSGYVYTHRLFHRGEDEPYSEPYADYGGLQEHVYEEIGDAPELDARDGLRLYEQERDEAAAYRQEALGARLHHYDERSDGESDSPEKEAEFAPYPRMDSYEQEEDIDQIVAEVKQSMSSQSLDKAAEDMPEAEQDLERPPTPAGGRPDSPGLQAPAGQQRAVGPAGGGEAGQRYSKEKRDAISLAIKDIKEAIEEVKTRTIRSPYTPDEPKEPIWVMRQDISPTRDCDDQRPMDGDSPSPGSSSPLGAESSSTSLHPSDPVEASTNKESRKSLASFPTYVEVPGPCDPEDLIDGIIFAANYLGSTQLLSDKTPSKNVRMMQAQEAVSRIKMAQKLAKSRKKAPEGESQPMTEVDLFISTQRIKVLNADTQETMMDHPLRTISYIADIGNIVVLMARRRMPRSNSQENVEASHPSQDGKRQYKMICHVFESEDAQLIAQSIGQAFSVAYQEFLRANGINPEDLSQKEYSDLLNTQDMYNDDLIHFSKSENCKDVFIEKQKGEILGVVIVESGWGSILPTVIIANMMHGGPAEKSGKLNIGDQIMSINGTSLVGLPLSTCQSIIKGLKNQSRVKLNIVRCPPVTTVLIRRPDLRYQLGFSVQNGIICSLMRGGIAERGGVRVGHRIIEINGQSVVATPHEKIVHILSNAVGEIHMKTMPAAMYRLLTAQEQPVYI
Chain of Galanin receptor type 2 (O43603 whole entry): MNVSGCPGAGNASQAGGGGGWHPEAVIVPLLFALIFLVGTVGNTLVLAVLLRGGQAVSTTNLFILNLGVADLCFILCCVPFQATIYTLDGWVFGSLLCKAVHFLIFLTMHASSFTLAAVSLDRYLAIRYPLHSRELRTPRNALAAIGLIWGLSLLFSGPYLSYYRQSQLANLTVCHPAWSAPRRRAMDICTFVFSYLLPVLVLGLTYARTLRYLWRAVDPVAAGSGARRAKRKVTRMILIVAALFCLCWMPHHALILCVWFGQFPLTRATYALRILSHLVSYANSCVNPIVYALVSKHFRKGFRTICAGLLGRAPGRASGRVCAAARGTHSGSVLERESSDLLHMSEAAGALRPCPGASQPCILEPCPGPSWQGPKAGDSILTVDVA
Chain of Dual specificity protein phosphatase 6 (Q64346 whole entry): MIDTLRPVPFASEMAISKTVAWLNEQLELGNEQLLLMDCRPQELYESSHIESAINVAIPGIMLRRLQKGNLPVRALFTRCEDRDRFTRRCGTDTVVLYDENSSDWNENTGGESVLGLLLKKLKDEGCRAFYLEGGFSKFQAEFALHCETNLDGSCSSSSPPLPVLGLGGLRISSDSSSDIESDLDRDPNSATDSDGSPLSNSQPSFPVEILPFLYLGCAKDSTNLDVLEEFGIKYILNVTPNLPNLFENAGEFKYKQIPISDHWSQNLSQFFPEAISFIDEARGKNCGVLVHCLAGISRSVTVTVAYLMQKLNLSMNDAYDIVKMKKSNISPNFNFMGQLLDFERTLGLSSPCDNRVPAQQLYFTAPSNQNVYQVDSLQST
Chain of Beta-lactamase (Salmonella choleraesuis (strain SC-B67), UniProt Q5J463) (Q5J463 whole entry): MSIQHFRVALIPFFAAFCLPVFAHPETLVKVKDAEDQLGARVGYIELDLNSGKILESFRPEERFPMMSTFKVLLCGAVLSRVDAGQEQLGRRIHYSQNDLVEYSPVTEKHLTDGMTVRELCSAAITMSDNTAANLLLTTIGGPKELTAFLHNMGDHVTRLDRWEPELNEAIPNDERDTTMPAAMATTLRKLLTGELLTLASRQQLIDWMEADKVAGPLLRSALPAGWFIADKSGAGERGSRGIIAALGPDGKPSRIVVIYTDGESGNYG
Chain of Mitogen-activated protein kinase 10 (P53779 whole entry): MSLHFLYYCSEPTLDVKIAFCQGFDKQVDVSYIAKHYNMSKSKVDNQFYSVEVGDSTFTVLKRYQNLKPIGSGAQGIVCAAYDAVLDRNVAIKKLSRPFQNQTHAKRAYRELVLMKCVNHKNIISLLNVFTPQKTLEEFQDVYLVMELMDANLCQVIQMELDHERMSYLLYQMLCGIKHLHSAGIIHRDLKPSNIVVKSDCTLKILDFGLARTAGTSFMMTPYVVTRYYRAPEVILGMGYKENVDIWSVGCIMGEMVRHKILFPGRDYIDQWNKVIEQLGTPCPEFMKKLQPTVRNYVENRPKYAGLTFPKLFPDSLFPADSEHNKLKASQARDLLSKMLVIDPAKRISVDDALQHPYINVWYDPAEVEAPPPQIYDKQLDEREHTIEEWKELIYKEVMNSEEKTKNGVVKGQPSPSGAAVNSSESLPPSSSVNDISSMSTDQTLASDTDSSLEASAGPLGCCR
Chain of Protein Wnt-3a (P27467 whole entry): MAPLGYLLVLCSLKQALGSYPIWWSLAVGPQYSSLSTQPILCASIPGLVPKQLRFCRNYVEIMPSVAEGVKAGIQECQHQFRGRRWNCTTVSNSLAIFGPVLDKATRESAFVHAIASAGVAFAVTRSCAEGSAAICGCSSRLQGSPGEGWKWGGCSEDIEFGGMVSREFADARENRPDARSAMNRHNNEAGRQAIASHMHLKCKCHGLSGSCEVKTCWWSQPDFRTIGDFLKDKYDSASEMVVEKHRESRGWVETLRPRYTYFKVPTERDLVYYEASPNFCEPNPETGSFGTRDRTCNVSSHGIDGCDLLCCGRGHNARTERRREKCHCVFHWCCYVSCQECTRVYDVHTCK

For O=C(/C=C/c1ccc(O)cc1)c1ccc(/N=C2\C(=O)c3ccccc3C(O)=C2N2CCCCC2)cc1, the IC50 [1] was > 128 µM (inactive), the EC50 (Protein RecA) was 707 nM (active) and the IC50 [2] was 26.4 µM (not active). For the same compound, the AC50 [3] was > 380 µM (inactive), the IC50 [4] was 2.91 µM (active) and the CC50 [5] was 8.74 µM (active). For the same compound, the IC50 [6] was > 67 µM (not active).
With O=C1c2ccccc2-c2onc3ccc(NCCCn4ccnc4)c1c23 the IC50 (Bcl-2-related protein A1 [7]) was > 100 µM (not active), the IC50 (Beta-lactamase [8]) was 3.02 µM (active) and the IC50 [9] was > 50 µM (inactive). The IC50 [10] was 3.18 µM (active), the IC50 [11] was 1.19 µM (active) and the IC50 (Bcl-2-related protein A1 [12]) was > 100 µM (not active). For the same compound, the IC50 (Beta-lactamase [13]) was 5.38 µM (active) and the IC50 [14] was 22.2 µM (not active).
For c1ccc2c(c1)OCC(CNc1ncnc3sccc13)O2 (configuration not stated), the IC50 (Protein Wnt-3a) was 1.83 µM (active), the EC50 [15] was > 150 µM (inactive) and the EC50 [16] was 270 nM (active). For the same compound, the EC50 [17] was > 150 µM (inactive), the IC50 (Galanin receptor type 2) was > 42 µM (not active) and the AC50 (INS1) was 941 nM (active). The EC50 [18] was > 180 µM (inactive).
